Source: patent EP0359745B1, “GROWTH FACTOR RECEPTOR” (IMPERIAL CANCER RESEARCH TECHNOLOGY LIMITED, priority 1987, dated 1988)
Non-standard residues stand in square brackets, D forms with d. Residues, ends and D or L forms follow the SMILES beside them.

Assays:
Mr 75000-85000 protein [1] = target: T1, Mr 75000-85000 protein (Mus musculus, UniProt P21729); experiment: ¹²⁵I-GRP affinity labelling (EGS cross-linking) of the Mr 75000-85000 protein in Swiss 3T3 cells, SDS-PAGE and scanning densitometry; type: binding; parameters: endogenous in cells; host or cells: Swiss 3T3 cells (confluent, quiescent, intact); conditions: 2.5 h; read-out: Mr 75000-85000 protein % of control
T1 sequence (P21729 whole entry): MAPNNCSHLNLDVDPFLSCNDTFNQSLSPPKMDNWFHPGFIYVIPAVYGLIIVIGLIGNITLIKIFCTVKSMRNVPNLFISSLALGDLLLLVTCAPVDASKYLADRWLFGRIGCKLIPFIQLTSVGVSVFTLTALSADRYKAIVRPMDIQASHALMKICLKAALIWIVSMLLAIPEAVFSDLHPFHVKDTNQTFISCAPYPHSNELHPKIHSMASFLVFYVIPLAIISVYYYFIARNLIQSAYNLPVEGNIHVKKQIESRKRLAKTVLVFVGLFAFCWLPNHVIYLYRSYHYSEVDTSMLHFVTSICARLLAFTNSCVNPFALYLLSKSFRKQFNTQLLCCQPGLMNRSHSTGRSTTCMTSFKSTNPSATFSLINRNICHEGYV
Method: (§1) After 2.5 h the cells were washed three times at 15°C with phosphate buffered saline (PBS) ad then incubated for 15 min at 15°C In 1 ml of binding medium, pH 7.4 In the presence of the appropriate cross-linking agent at the concentration indicated. The cross-linking agents (EGS, DSS, DSP and BSCOES) were dissolved in dimethyl sulphoxide immediately prior to use and were added to medium to give a final concentration of dimethylsulphoxide of 1-2%. The cultures were rapidly rinsed twice with PBS at 4°C and solubilized in 0.1ml of 2 x sample buffer 0.2 M Tris-HCl, pH 6.8, 10% (w/v) glycerol, 6% sodium dodecyl sulphate (SDS) (w/v) 4% β-mercaptoethanol (v/v) and 2 mM ethylenediaminetetraacetic acid. Samples were immediately heated at 100°C for 3-5 min and analysed by either one or two-dimensional gel electrophoresis.
Slab gel electrophoresis was performed using 7.5% acrylamide in the separating gel ad 5% in the stacking gel, ad 0.1% SDS (31). […] The Mr 75000-85000 band from autoradiograms was scanned using a Joyce-Loebl double beam densitometer and the areas under specific peaks were measured with a Hewlett-Packard digitizer.
Confluent cultures of 3T3 cells were incubated with 5 nM ¹²⁵I-GRP in the presence of varying concentrations of non-radioactive ligand at 15°C for 2.5 h. […] The cells were then solubilized and samples were analyzed by SDS-PAGE. […]

Swiss 3T3 cells [2] = experiment: GRP-induced DNA synthesis ([³H]thymidine incorporation) in Swiss 3T3 cells; type: cell-based, mouse
Method: (§2) Cell culture procedure (33), assays of DNA synthesis by ³H-thymidine incorporation (34) ad ¹²⁵I-GRP binding to intact cells (13) were performed as described previously.
Figure 3. Inhibition of GRP-induced DNA synthesis by [DPro²]spantide (A) and [DPhe⁵]spantide (D). […] After 40 hours DNA synthesis was estimated by [³H]thymidine incorporation into acid-precipitable material. […] Each point represents the mean of duplicate determinations. […] Values are expressed as a percentage of [³H]thymidine incorporation obtained in the absence of antagonists (100% = 8.6 x 10⁵ cpm per dish). Each point represents the mean of 4 determinations.

GRP receptor = target: T2, GRP receptor (Mus musculus, UniProt P21729); experiment: specific [¹²⁵I]GRP binding to intact Swiss 3T3 cells; conditions: read-out: Half-maximal inhibition of binding
T2 construct: endogenous in cells; host or cells: Swiss 3T3 cells (mouse fibroblasts)
T2 sequence (P21729 whole entry): as above
Method: as §2
(§3) Figure 4. […] Values are expressed as percentage of the specific binding obtained in the absence of antagonists. […] Each point represents the mean of 3 determinations. […] Specific binding (B) is expressed in pmol/10⁶ cells and is shown in a double-reciprocal plot. Each point represents the mean of duplicate determinations. […] After 2 hours, the cultures were washed twice with binding medium then incubated in 1 ml containing 6 mM ethylene glycol bis (succinimidylsuccinate) (EGS) at pH 7.4 for 15 minutes at 15°C. The cultures were then washed twice with cold phosphate-buffered saline and solubilised in 0.1 ml of 2x sample buffer, then immediately heated at 100°C for 5 minutes and electrophoresed on a 10% polyacrylamide gel.

Swiss 3T3 cells [3] = experiment: GRP-stimulated rise in cytosolic Ca²⁺ concentration (fura-2 fluorescence) in Swiss 3T3 cells; type: cell-based, mouse; conditions: GRP (1 nM)
Method: (§4) Figure 5. […] Left: Effects of antagonists on [Ca²⁺]i. Quiescent Swiss 3T3 cells grown on Cytodex 2 beads were washed twice with DMEM and incubated for 10 minutes with fura-2 tetracetoxymethyl ester at 1 »m, then washed three times and suspended in 2 ml of electrolyte solution (6) in the fluorimeter at 37°C and stirred. Fluorescence was recorded continuously in a Perkins-Elmer LS5 luminescence spectrometer with an excitation wavelength of 335 nm and emission wavelength of 510 nm. After a period of equilibration, the following additions were made: solvent, S; antagonist A at 5 »m, A, 5 and 20 »m, A, 20; antagonist D at 5»m, D, 5. […] Values are expressed as percentages of the specific binding obtained with [¹²⁵I]EGF alone at 0.2 nM. The non-specific binding was obtained by the addition of 500-fold excess of unlabelled EGF. Each point represents the mean of 6 determinations.

Swiss 3T3 cells [4] = experiment: reversal of the inhibition of [¹²⁵I]EGF binding induced by GRP in Swiss 3T3 cells; type: cell-based, mouse; conditions: read-out: Half-maximal reversal of inhibition (of [¹²⁵I]EGF binding by GRP); [¹²⁵I]EGF 0.2 nM, GRP 3.6 nM, 1 hour, 37°C
Method: as §4

H69 cells = experiment: growth of SCLC cell line in serum-free medium (cell number, Coulter Counter); type: cell-based
Method: (§5) Figure 6. […] Stock cultures of cell lines H69, H128 and H417 were maintained in RPMI 1640 medium with 10% fetal bovine serum (heat inactivated) in a humidified atmosphere of 10% CO₂:90% air at 37°C. They were passaged every 7 days. Identical growth was obtained in the serum-free medium of RPMI 1640 supplemented with HITES (29) (hydrocortisone, 10 nM; insulin, 5 »g/ml; transferrin, 100 »g/ml; 17β-estradiol, 10 nM; sodium selenite, 30 nM) and 0.25% bovine serum albumin. […] Cell number was determined at intervals over 14 days in a Coulter Counter after disaggregation of cell clumps by syringing through 19G and 21G needles. Each point represents the mean of 3 determinations.
Figure 7. Inhibition of SCLC growth in vitro by [DPro²]spantide and [DPhe⁵]spantide is concentration-dependent. Cultures of H69 cells were washed twice with RPMI 1640 medium then incubated in serum-free medium (as in Figure 6) in the absence (●) or presence of various concentrations of [DPro²]spantide (o,A) and [DPhe⁵]spantide (△,D). Cell number was determined in a Coulter Counter after disaggregation of cell clumps by syringing through 19G and 21 G needles. Samples were incubated for 13 days, when the controls (inset) had achieved 10-fold increase in number, indicated by the arrow. Each point represents the mean (± standard deviation) of 5 determinations.

H128 = experiment: as above; type: cell-based; conditions: antagonist at 150 »m, reversed by washing
Method: as §5

H417 = experiment: as above; type: cell-based; conditions: antagonist at 150 »m, reversed by washing
Method: as §5

Mr 75000-85000 protein [5] = target: T1, Mr 75000-85000 protein; experiment: ¹²⁵I-GRP affinity labelling (EGS cross-linking) of the Mr 75000-85000 protein in Swiss 3T3 cells, SDS-PAGE and scanning densitometry; type: binding; parameters: endogenous in cells; host or cells: Swiss 3T3 cells (mouse fibroblasts)
Method: as §1
Slab gel electrophoresis was performed using 7.5% acrylamide in the separating gel ad 5% in the stacking gel, ad 0.1% SDS (31). After electrophoresis gels were stained, destained and dried down onto paper for autoradiography with Fuji X-ray film (Fuji Photo Film Co. Ltd. Japan). Dried gels were exposed to film for 4-8 days. Two-dimensional gel electrophoresis was performed as described by O'Farrell (32) using isoelectric focusing in the 1st dimension and SDS-polyacrylamide gel electrophoresis (SDS-PAGE) (8% polyacrylamide) in the second dimension. The samples prepared for isoelectric focusing containing 1.4% LKB ampholytes, pH 5-7, plus 0.6% LKD ampholytes, pH 3.5-10, 6M urea, and 2% Nonidet P-40. The Mr 75000-85000 band from autoradiograms was scanned using a Joyce-Loebl double beam densitometer and the areas under specific peaks were measured with a Hewlett-Packard digitizer.
After this time some cells were washed four times with cold (4°C) PBS supplemented with 1 mg/ml BSA, solubilized and total cell associated radioactivity was then determined in a gamma counter. […] The cells were then solubilized and samples were analyzed by SDS-PAGE. After electrophoresis, gels were dried, exposed to film and scanned as described in Materials and Methods. The areas under the individual peaks for the Mr 75000-85000 protein are shown as a function of the concentration of the unlabelled peptide and are expressed as a percentage of the control. […] The level of the Mr 75000-85000 protein expressed in arbitrary units is shown as a function of the concentration of the labelled ligand. Inset: autoradiogram of the gel used for scanning; the Mr 75000-85000 and 160,000 bands are indicated by arrows. All other experimental details were as described in Materials and Methods.
as §3
After the incubation period cultures were treated with 6 mM EGS as described in Materials and Methods. Each value is expressed as a percentage of the level of the Mr 75000-85000 protein obtained with no additons (-). Other experimental details are as described in Materials and Methods.

| SMILES | remaining activity at 2 µM (Mr 75000-85000 protein [1]) [%] | IC50 (Swiss 3T3 cells [2]; GRP 3.6 nM, 40 hours, Figure 3 right, read-out: Half-maximal inhibition of DNA synthesis) [µM] | concentration of GRP required to produce half-maximal stimulation of DNA synthesis (Swiss 3T3 cells [2]; antagonist at 20 »m, Figure 3 left) | IC50 (GRP receptor) [µM] | rise in [Ca²⁺]i caused by the addition of GRP (Swiss 3T3 cells [3]; antagonist at 5 »m) | rise in [Ca²⁺]i caused by the addition of GRP (Swiss 3T3 cells [3]; antagonist at 20 »m) | EC50 (Swiss 3T3 cells [4]) [µM] | rate of growth in serum-free medium (H69 cells; H69, antagonist at 150 »m, reversed by washing) | IC50 (H69 cells; H69 cells, serum-free medium, 13 days, read-out: half-maximal effect (inhibition of growth)) [µM] | rate of growth in serum-free medium (H128) | rate of growth in serum-free medium (H417) | IC50 (Mr 75000-85000 protein [5]; read-out: Half-maximal inhibition (affinity-labelling of the Mr 75000-85000 protein)) [µM] | cross-linking of ¹²⁵I-GRP / level of the Mr 75000-85000 protein (in words) (Mr 75000-85000 protein [5]; summary of Table 1, saturating concentrations of the other mitogens) | Mr 75000-85000 protein % of control (Mr 75000-85000 protein [5]; ¹²⁵I-GRP (0.5 nM), 15°C, 2.5 h, 6 mM EGS, additions: GRP 360 nM, GRP (14-27) 30 nM, bombesin 30 nM, litorin 92 nM, neuromedin B 220 nM, [D-Arg¹,D-Pro²,D-Trp^7,9,Leu¹¹] substance P 100 »M, GRP (1-16) 3230 nM, PDGF 5 nM, EGF 83 nM, vasopressin 1000 nM, insulin 1 »g/ml, phorbol 12,13 dibutyrate 2000 nM, substance P 740 nM, substance K 880 nM, somatostatin 610 nM, neurotensin 600 nM) |
| --- | --- | --- | --- | --- | --- | --- | --- | --- | --- | --- | --- | --- | --- | --- |
| CCCC(=O)O[C@@H]1[C@@H](C)[C@@]2(O)[C@@H](C=C(CO)C[C@]3(O)C(=O)C(C)=C[C@@H]23)[C@@H]2C(C)(C)[C@]12OC(=O)CCC [Phorbol 12,13-dibutyrate] | 99 |  |  |  |  |  |  |  |  |  |  |  |  |  |
| CC(C)C[C@H](NC(=O)[C@H](CC(C)C)NC(=O)[C@@H](Cc1c[nH]c2ccccc12)NC(=O)[C@H](Cc1ccccc1)NC(=O)[C@@H](Cc1c[nH]c2ccccc12)NC(=O)[C@H](CCC(N)=O)NC(=O)[C@H](CCC(N)=O)NC(=O)[C@@H]1CCCN1C(=O)[C@H](CCCCN)NC(=O)[C@H]1CCCN1C(=O)[C@H](N)CCCNC(=N)N)C(N)=O [[DPro²]spantide, D-Arg-D-Pro-Lys-Pro-Gln-Gln-D-Trp-Phe-D-Trp-Leu-Leu-NH₂] (H-[dR][dP]KPQQ[dW]F[dW]LL-NH2) |  | 118 | only a slight effect | 14 | not | prevented | 30 | abolished | 82 | abolished | abolished | 20 | markedly inhibited | 9.7 % of control |
